{"source": "PubChem BioAssay AID1963870", "about": "(Molecular Pharmacology Branch, DTP, NCI, 2024)", "test_system": "292921-168-R-J2-PDC KRAS tumor spheroid viability", "test": "Anticancer human tumor 292921-168-R-J2-PDC patient-derived pancreatic carcinoma cell line growth inhibition [KRAS2]", "details": "spheroids with HUVEC and MSC; for pIC50: curve of first compound; for viability, T/C: stronger effect = lower value", "excerpt": "Multicellular complex tumor spheroid response to RAS pathway inhibitors in combination with a targeted agents in patient-derived cell lines with oncogenic KRAS variants from multiple cancer types\nA high-throughput screen of multi-cell type tumor spheroids was designed to identify active combinations of targeted small molecules and KRAS pathway inhibitors. Complex spheroids include a stromal component modeled by human endothelial cells (HUVEC) and fibroblasts modeled by human mesenchymal stem cells (MSCs). The concentration ranges selected for each drug and investigational agent were based upon clinically achievable concentrations if the clinical Cmax of the agent was known.\nCompounds. The drugs and investigational agents: BI-3406 (NSC825286), BAY-293 (NSC824723), batoprotafib (TNO155; NSC825523), sotorasib (AMG 510; NSC818433), MRTX1257 (NSC819558), elimusertib (BAY 1895344; NSC800525), molibresib (GSK525762; NSC774829), temuterkib (LY3214996; NSC803410), venetoclax (NSC766270), alisertib (NSC759677), olaparib (NSC753686), talazoparib (NSC767125), erdafitinib (NSC781556), ipatasertib (NSC767898), cabozantinib (NSC761068), nintedanib (NSC756659), abemaciclib (NSC768073), docetaxel (NSC628503), trametinib (NSC758246), and sapanisertib (NSC764658) were obtained from the National Cancer Institute (NCI) Developmental Therapeutics Program Chemical Repository. The FDA-approved anticancer drug set is available from the Developmental Therapeutics Program. […] The stock solutions were prepared in dimethyl sulfoxide (DMSO, Sigma-Aldrich, St. Louis, MO, cat. D2650) at 800-fold the tested concentration and stored at -70 degrees C prior to their use. All drugs and investigational agents were tested over a range starting from a high concentration at or near the clinical Cmax and decreasing in half-log increments. If the clinical Cmax for an agent had not been determined, the highest concentration tested was 10 microM.\nCell Culture. All cells were maintained in an incubator at 37 degrees C and 5% CO2 with 95% humidity. The PDC lines were cultured according to standard operating procedures established by the NCI PDMR (https://pdmr.cancer.gov/sops/default.htm). Briefly, all PDCs were thawed and cultured in Matrigel-coated flasks prepared with a working solution of 1X Ham's F-12 nutrient mix, without supplementation (Invitrogen, Waltham, MA, cat. 11765054), 100 U/mL penicillin-streptomycin (Invitrogen, cat. 15140122), and 2.5% Matrigel (Corning Inc., Corning, NY, cat. 354248) for the first three passages. All PDCs were cultured in complete DMEM/F-12 media containing advanced DMEM/F-12 (Invitrogen, cat. 12634028), 4.9% defined fetal bovine serum, heat inactivated (HyClone Laboratories Inc., Logan, UT, cat. SH30070.03HI), 389 ng/mL hydrocortisone (Sigma-Aldrich, cat. H4001), 9.7 ng/mL human EGF recombinant protein (Invitrogen, cat. PHG0313), 23.4 microg/mL adenine (Sigma-Aldrich, cat. A2786), 97.3 U/mL penicillin-streptomycin (Invitrogen, cat. 15140122), 1.9 mM L-glutamine (Invitrogen, cat. 25030081), and 9.7 microM Y-27632 dihydrochloride (Tocris Bioscience, Bristol, United Kingdom, cat. 1254). The PDCs were cultured in complete DMEM/F12 media without 9.7 microM Y-27632 dihydrochloride for at least two passages prior to the screen. The established cell line HOP-62 was cultured in RPMI 1640 medium, HEPES (Invitrogen, cat. 22400105) with 10% defined fetal bovine serum (HyClone Laboratories Inc., cat. SH30070.03) and 2 mM L-glutamine (Invitrogen, cat. 25030081). The pooled donor HUVEC were cultured in endothelial cell growth medium 2 (PromoCell, Heidelberg, Germany, cat. C-22011) and the hMSC were cultured in mesenchymal stem cell growth medium 2 (PromoCell, cat. C-28009). For all experiments, HUVEC and hMSC were used at passages </=5, while the malignant cell lines were used at passages </=15. […]", "key": {"[1]": {"details": "second compound 0.0316 µM, first compound 0.01 µM"}, "[2]": {"details": "second compound 0.0316 µM, first compound 0.0316 µM"}, "[3]": {"details": "second compound 0.1 µM, first compound 0.01 µM"}, "[4]": {"details": "second compound 0.1 µM, first compound 0.0316 µM"}, "[5]": {"details": "second compound 0.316 µM, first compound 0.01 µM"}, "[6]": {"details": "second compound 0.316 µM, first compound 0.0316 µM"}, "[7]": {"details": "second compound 1 µM, first compound 0.01 µM"}, "[8]": {"details": "second compound 1 µM, first compound 0.0316 µM"}, "[9]": {"details": "second compound 3.16 µM, first compound 0.01 µM"}, "[10]": {"details": "second compound 3.16 µM, first compound 0.0316 µM"}}, "note": "pIC50: −log10 of the molar value."}
{"compound": "CC(=O)Nc1cccc(-n2c(=O)n(C3CC3)c(=O)c3c(Nc4ccc(I)cc4F)n(C)c(=O)c(C)c32)c1", "note": "+ C=CC(=O)N1CCN(c2nc(OCC3CCCN3C)nc3c2CCN(c2cccc4cccc(C)c24)C3)CC1CC#N;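 note: drug exposure lasted seven days after spheroids formed for three days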;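 for viability, T/C: percent of DMSO vehicle control viability which is 100%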", "values": [{"measurement": "pIC50", "setting": "second compound 0.0316 µM", "result": 9.55}, {"measurement": "pIC50", "setting": "second compound 0.1 µM", "result": 9.62}, {"measurement": "pIC50", "setting": "second compound 0.316 µM", "result": 9.84}, {"measurement": "pIC50", "setting": "second compound 1 µM", "result": "> 10.00"}, {"measurement": "pIC50", "setting": "second compound 3.16 µM", "result": "> 10.00"}, {"measurement": "viability, T/C", "setting": "second compound 0.0316 µM, first compound 0.0001 µM", "result": 78.2, "unit": "%"}, {"measurement": "viability, T/C", "setting": "second compound 0.0316 µM, first compound 0.000316 µM", "result": 46.6, "unit": "%"}, {"measurement": "viability, T/C", "setting": "second compound 0.0316 µM, first compound 0.001 µM", "result": 27.2, "unit": "%"}, {"measurement": "viability, T/C", "setting": "second compound 0.0316 µM, first compound 0.00316 µM", "result": 18.6, "unit": "%"}, {"measurement": "viability, T/C", "setting": "[1]", "result": 11.9, "unit": "%"}, {"measurement": "viability, T/C", "setting": "[2]", "result": 8.52, "unit": "%"}, {"measurement": "viability, T/C", "setting": "second compound 0.1 µM, first compound 0.0001 µM", "result": 63.3, "unit": "%"}, {"measurement": "viability, T/C", "setting": "second compound 0.1 µM, first compound 0.000316 µM", "result": 45.9, "unit": "%"}, {"measurement": "viability, T/C", "setting": "second compound 0.1 µM, first compound 0.001 µM", "result": 29.1, "unit": "%"}, {"measurement": "viability, T/C", "setting": "second compound 0.1 µM, first compound 0.00316 µM", "result": 17.6, "unit": "%"}, {"measurement": "viability, T/C", "setting": "[3]", "result": 12.4, "unit": "%"}, {"measurement": "viability, T/C", "setting": "[4]", "result": 7.9, "unit": "%"}, {"measurement": "viability, T/C", "setting": "second compound 0.316 µM, first compound 0.0001 µM", "result": 56.5, "unit": "%"}, {"measurement": "viability, T/C", "setting": "second compound 0.316 µM, first compound 0.000316 µM", "result": 36.5, "unit": "%"}, {"measurement": "viability, T/C", "setting": "second compound 0.316 µM, first compound 0.001 µM", "result": 23, "unit": "%"}, {"measurement": "viability, T/C", "setting": "second compound 0.316 µM, first compound 0.00316 µM", "result": 13.5, "unit": "%"}, {"measurement": "viability, T/C", "setting": "[5]", "result": 10.3, "unit": "%"}, {"measurement": "viability, T/C", "setting": "[6]", "result": 7.06, "unit": "%"}, {"measurement": "viability, T/C", "setting": "second compound 1 µM, first compound 0.0001 µM", "result": 42.7, "unit": "%"}, {"measurement": "viability, T/C", "setting": "second compound 1 µM, first compound 0.000316 µM", "result": 21.9, "unit": "%"}, {"measurement": "viability, T/C", "setting": "second compound 1 µM, first compound 0.001 µM", "result": 13.3, "unit": "%"}, {"measurement": "viability, T/C", "setting": "second compound 1 µM, first compound 0.00316 µM", "result": 9.17, "unit": "%"}, {"measurement": "viability, T/C", "setting": "[7]", "result": 6.87, "unit": "%"}, {"measurement": "viability, T/C", "setting": "[8]", "result": 5.25, "unit": "%"}, {"measurement": "viability, T/C", "setting": "second compound 3.16 µM, first compound 0.0001 µM", "result": 0.18, "unit": "%"}, {"measurement": "viability, T/C", "setting": "second compound 3.16 µM, first compound 0.000316 µM", "result": 0.2, "unit": "%"}, {"measurement": "viability, T/C", "setting": "second compound 3.16 µM, first compound 0.001 µM", "result": 0.11, "unit": "%"}, {"measurement": "viability, T/C", "setting": "second compound 3.16 µM, first compound 0.00316 µM", "result": 0.27, "unit": "%"}, {"measurement": "viability, T/C", "setting": "[9]", "result": 0.11, "unit": "%"}, {"measurement": "viability, T/C", "setting": "[10]", "result": 0.17, "unit": "%"}]}
{"compound": "CC1COCCN1c1cc(-c2ccnn2C)c2ccnc(-c3ccn[nH]3)c2n1", "note": "(stereo not given) + C=CC(=O)N1CCN(c2nc(OCC3CCCN3C)nc3c2CCN(c2cccc4cccc(C)c24)C3)CC1CC#N", "values": [{"measurement": "pIC50", "setting": "second compound 0.0316 µM", "result": "> 8.00"}, {"measurement": "pIC50", "setting": "second compound 0.1 µM", "result": "> 8.00"}, {"measurement": "pIC50", "setting": "second compound 0.316 µM", "result": "> 8.00"}, {"measurement": "pIC50", "setting": "second compound 1 µM", "result": "> 8.00"}, {"measurement": "pIC50", "setting": "second compound 3.16 µM", "result": "> 8.00"}, {"measurement": "viability, T/C", "setting": "[1]", "result": 38.6, "unit": "%"}, {"measurement": "viability, T/C", "setting": "[2]", "result": 16.4, "unit": "%"}, {"measurement": "viability, T/C", "setting": "second compound 0.0316 µM, first compound 0.1 µM", "result": 11.5, "unit": "%"}, {"measurement": "viability, T/C", "setting": "second compound 0.0316 µM, first compound 0.316 µM", "result": 10, "unit": "%"}, {"measurement": "viability, T/C", "setting": "second compound 0.0316 µM, first compound 1 µM", "result": 11.9, "unit": "%"}, {"measurement": "viability, T/C", "setting": "second compound 0.0316 µM, first compound 3.16 µM", "result": 12.6, "unit": "%"}, {"measurement": "viability, T/C", "setting": "[3]", "result": 33.6, "unit": "%"}, {"measurement": "viability, T/C", "setting": "[4]", "result": 14, "unit": "%"}, {"measurement": "viability, T/C", "setting": "second compound 0.1 µM, first compound 0.1 µM", "result": 9.02, "unit": "%"}, {"measurement": "viability, T/C", "setting": "second compound 0.1 µM, first compound 0.316 µM", "result": 9.07, "unit": "%"}, {"measurement": "viability, T/C", "setting": "second compound 0.1 µM, first compound 1 µM", "result": 11, "unit": "%"}, {"measurement": "viability, T/C", "setting": "second compound 0.1 µM, first compound 3.16 µM", "result": 11.7, "unit": "%"}, {"measurement": "viability, T/C", "setting": "[5]", "result": 22.6, "unit": "%"}, {"measurement": "viability, T/C", "setting": "[6]", "result": 11, "unit": "%"}, {"measurement": "viability, T/C", "setting": "second compound 0.316 µM, first compound 0.1 µM", "result": 7.47, "unit": "%"}, {"measurement": "viability, T/C", "setting": "second compound 0.316 µM, first compound 0.316 µM", "result": 8.07, "unit": "%"}, {"measurement": "viability, T/C", "setting": "second compound 0.316 µM, first compound 1 µM", "result": 9.3, "unit": "%"}, {"measurement": "viability, T/C", "setting": "second compound 0.316 µM, first compound 3.16 µM", "result": 10.8, "unit": "%"}, {"measurement": "viability, T/C", "setting": "[7]", "result": 8.66, "unit": "%"}, {"measurement": "viability, T/C", "setting": "[8]", "result": 6.29, "unit": "%"}, {"measurement": "viability, T/C", "setting": "second compound 1 µM, first compound 0.1 µM", "result": 5.9, "unit": "%"}, {"measurement": "viability, T/C", "setting": "second compound 1 µM, first compound 0.316 µM", "result": 6.42, "unit": "%"}, {"measurement": "viability, T/C", "setting": "second compound 1 µM, first compound 1 µM", "result": 6.98, "unit": "%"}, {"measurement": "viability, T/C", "setting": "second compound 1 µM, first compound 3.16 µM", "result": 7.65, "unit": "%"}, {"measurement": "viability, T/C", "setting": "[9]", "result": 0.1, "unit": "%"}, {"measurement": "viability, T/C", "setting": "[10]", "result": 0.09, "unit": "%"}, {"measurement": "viability, T/C", "setting": "second compound 3.16 µM, first compound 0.1 µM", "result": 0.08, "unit": "%"}, {"measurement": "viability, T/C", "setting": "second compound 3.16 µM, first compound 0.316 µM", "result": 0.09, "unit": "%"}, {"measurement": "viability, T/C", "setting": "second compound 3.16 µM, first compound 1 µM", "result": 0.27, "unit": "%"}, {"measurement": "viability, T/C", "setting": "second compound 3.16 µM, first compound 3.16 µM", "result": 0.15, "unit": "%"}]}
